According to patent US20260007613A1, “LONG-ACTING LOW-TOXICITY NOVEL CATIONIC LIPID COMPOUNDS AND COMPOSITION THEREOF” (BEIJING YOUCAREKECHUANG PHARMACEUTICAL TECHNOLOGY CO., LTD., priority 2023, published 2026):

What was measured:
[1] = Particle size and polydispersity index (PDI) of lipid nanoparticles by dynamic light scattering; assay type: physicochemical; details: LNP formulation prepared from the cationic lipid, 25° C.
Description: The particle size and polydispersity index (PDI) were determined by dynamic light scattering using Malvern laser particle size analyzer.
10 μL of the liposome solution was weighed, diluted to 1 mL with RNase-free deionized water, and added to the sample pool. Each sample was measured in triplicate. The measurement conditions were: […] scattering angle, and 25° C.

293T cells [2] = test: Fluorescent detection of Fluc-mRNA (cell transfection efficiency of LNP formulations); assay type: cell-based; details: for Relative light unit (RLU): LNP formulation of Fluc-mRNA, 96-well plate, 24 hours; for Multiples (YK-305): RLU of YK-305 / RLU of the lipid of the line; for Multiples (YK-310): RLU of YK-310 / RLU of the lipid of the line; for Multiples (YK-312): RLU of YK-312 / RLU of the lipid of the line; for Ratio relative to SM-102: RLU of the lipid / RLU of SM-102, times that of SM-102; for Multiples (YK-318): RLU of YK-318 / RLU of the lipid of the line; for Multiples (YK-318) / Multiples (YK-319): Tables 5, 7, 11; for Multiples (YK-319): RLU of YK-319 / RLU of the lipid of the line
Description: (§1) Cell recovery and passage: 293T cells were recovered, cultured in a culture dish, and passaged to the required number of cells.
(§2) Seeding plate: The cells in the culture dish were digested and counted. Cells were spread in a 96-well plate at 10,000 cells per well and in a 12-well plate at 150,000 cells per well. Cells were cultured overnight until the cells adhered to the wall.
(§3) Cell recovery and passage: the method was the same as in Example 3.
(§4) Seeding plate: the method was the same as in Example 3.
An LNP formulation containing […] of Fluc-mRNA (the carrier components of the LNP formulation were cationic lipid, neutral lipid, structured lipid and polymer-conjugated lipid with a molar ratio of 49:10:39.5:1.5, wherein the cationic lipid was listed in Table 1) was added to the cell culture medium of a 96-well plate, and further incubated for 24 hours. The corresponding reagent was added according to the instructions of the […] Luciferase Assay Kit, and the fluorescence expression intensity of each well was detected by an IVIS fluorescence detection system. This test verified the transfection efficiencies of LNP formulations in cells, see Tables 4-7 for specific test results.

293T cells [3] = test: Cell survival rate determination (CCK-8); assay type: cell-based; details: LNP formulation of Fluc-mRNA, 24 hours, CCK-8
Description: as §1, §2, §3, §4
An LNP formulation containing […] of Fluc-mRNA (the carrier components of the LNP formulation were cationic lipid, neutral lipid, structured lipid and polymer-conjugated lipid with a molar ratio of 49:10:39.5:1.5, wherein the cationic lipid was listed in Table 1) and the formulation of Lipofectamine 3000 were added to the cell culture medium of a 96-well plate, and further cultivated for 24 hours. 10 μL of CCK-8 solution was then added to each well, and the culture plate was incubated in an incubator for 1 hour. The absorbance at 450 nm was measured by a microplate reader.
Cell survival rate can represent the toxicity of cationic lipids to cells. The higher the cell survival rate, the lower the toxicity to cells.

Structure (SMILES)	PDI (%) [1]	Particle size (nm) [1]	Relative light unit (RLU) (293T cells [2])	Multiples (YK-305) (293T cells [2])	Multiples (YK-310) (293T cells [2])	Multiples (YK-312) (293T cells [2])	Ratio relative to SM-102 (293T cells [2])	Cell survival rate (%) (293T cells [3])	Multiples (YK-318) (293T cells [2])	Multiples (YK-319) (293T cells [2])	Cell survival rate (%) (293T cells [3]; listed as YK 303)
CCCCCCCCCCC(CCCCCCCCCC)CCCOC(=O)CCCN(CCCC(=O)OCCCC(CCCCCCCCCC)CCCCCCCCCC)C[C@H](O)CN(CC)CCO [YK-315]	34.9%	181 nm	1587188 RLU	17.27	16.25	12.69	0.99	71.28%			
CCCCCCCCC(CCCCCCCC)OC(=O)CCCCCCCN(CCCCCCCC(=O)OC(CCCCCCCC)CCCCCCCC)C[C@H](O)CN(CC)CCO [YK-314]	24.6%	235 nm	547434 RLU	50.07	47.12	36.81	0.34	67.88%			
CCCCCCCCCCOC(=O)CCCN(CCCCCC(=O)OCC(CCCCCCCC)CCCCCCCC)C[C@H](O)CN(CC)CCO [YK-308]	13.4%	211 nm	5036582 RLU	5.44	5.12	4.00	3.14	70.99%			
CCCCCCCCCCCOC(=O)CCCCCN(CCCCCC(=O)OCCCCCCCCCCC)C[C@H](O)CN(C)CCO [YK-304, (R)-bis(undecyl)-6,6′-((2-hydroxy-3-((2-hydroxyethyl)(methyl)amino)propyl)azanediyl)dihexanoate]	19.8%	149 nm	20686 RLU	1324.99	1247.08	974.01		34.16%	540.95	1182.82	
CCCCCCCCCCCOC(=O)CCCCCN(CCCC(=O)OCCCC(CCCCCCCCCC)CCCCCCCCCC)C[C@H](O)CN(C)CCO [YK-303, (R)-undecyl-6-(4-(4-decyltetradecyloxy)-4-oxobutyl)((2-hydroxy-3-((2-hydroxyethyl)(methyl)amino)propyl)amino)hexanoate]			626314 RLU	43.76	41.19	32.17		82.18%	17.87	39.07	63.32%

More lines, main results first:

PDI (%) [1]	Particle size (nm) [1]	Structure (SMILES)	Relative light unit (RLU) (293T cells [2])	Multiples (YK-305) (293T cells [2])	Multiples (YK-310) (293T cells [2])	Multiples (YK-312) (293T cells [2])	Ratio relative to SM-102 (293T cells [2])	Cell survival rate (%) (293T cells [3])	Multiples (YK-318) (293T cells [2])	Multiples (YK-319) (293T cells [2])	Cell survival rate (%) (293T cells [3]; listed as YK 303)
31.1%	209 nm	CCCCCCC(CCCCCC)CCOC(=O)CCCCCN(CCCCCC(=O)OCCC(CCCCCC)CCCCCC)C[C@H](O)CN(CC)CCO [YK-311]	1963636 RLU	13.96	13.14	10.26	1.22	70.06%			
13.6%	228 nm	CCCCCCC(CCCCCC)CCOC(=O)CCCCCN(CCCCCC(=O)OCCC(CCCCCC)CCCCCC)C[C@H](O)CN(C)CCO [YK-306, (R)-bis(3-hexylnonyl)-6,6′-((2-hydroxy-3-((2-hydroxyethyl)(methyl)amino)propyl)azanediyl)dihexanoate]	2197174 RLU	12.47	11.14	9.17		42.19%	5.09	11.14	
16.4%	255 nm	CCCCCCC(CCCCCC)CCOC(=O)CCCCCN(CCCCCC(=O)OCCC(CCCCCC)CCCCCC)C[C@H](O)CN(CCO)CCO [YK-317, (S)-Bis(3-hexylnonyl)-6,6′-((3-(bis(2-hydroxyethyl)amino)-2-hydroxypropyl)azanediyl)dihexanoate]	3605054 RLU	7.60	7.16	5.59	2.25	59.18%	3.10	6.79	
